Among the data in paper PMC4177084 (Journal of Thyroid Research, 2014) are IC50, antitumor activity and RET phosphorylation values, retold here.

Experiment [1] addresses T1, KIT(T670I) (Homo sapiens, UniProt P10721, T670I).
T1 construct: purchased Carna Biosciences, Inc. (Kobe, Japan)
The experiment can be described thus: Cell free kinase inhibition assay. The format is biochemical.

Experiment [2] addresses T2, PDGFRα(T674I) (Homo sapiens, UniProt P16234, T674I).
T2 construct: purchased Carna Biosciences, Inc. (Kobe, Japan)
As to the kind of experiment: Cell free kinase inhibition assay. The format is biochemical.

Experiment [3] deals with T3, SYK (Homo sapiens, UniProt P43405).
T3 construct: purchased Carna Biosciences, Inc. (Kobe, Japan)
The experiment can be described thus: Cell free kinase inhibition assay. The format is biochemical.

The target of experiment [4] is T4, INSR (Homo sapiens, UniProt P06213).
T4 construct: purchased Carna Biosciences, Inc. (Kobe, Japan)
The experiment can be described thus: Cell free kinase inhibition assay. The format is biochemical.

In experiment [5] the target is T5, PRKX (Homo sapiens, UniProt P51817).
T5 construct: purchased Carna Biosciences, Inc. (Kobe, Japan)
As to the kind of experiment: Cell free kinase inhibition assay. The format is biochemical.

Experiment [6] concerns the target T6, SGK3 (Homo sapiens, UniProt Q96BR1).
T6 construct: purchased Carna Biosciences, Inc. (Kobe, Japan)
As to the kind of experiment: Cell free kinase inhibition assay. The format is biochemical.

Experiment [7] addresses T7, WEE1 (Homo sapiens, UniProt P30291).
T7 construct: purchased Carna Biosciences, Inc. (Kobe, Japan)
The experiment can be described thus: Cell free kinase inhibition assay. The format is biochemical.

The subject of experiment [8] is Nthy-ori 3-1 cells. As to the kind of experiment: Antiproliferation assay (WST-8). The format is cell-based, human. Particulars: Homo sapiens, 72 h; Nthy-ori 3-1 (normal thyroid), antiproliferative, 3 days.
Experiment [9] deals with K1 cells. The experiment can be described thus: Antiproliferation assay (WST-8). The format is cell-based, human. To be noted: Homo sapiens, 72 h; K1 (DTC), antiproliferative, 3 days.
For experiment [10], the system named is FTC-236 cells. The experiment can be described thus: Antiproliferation assay (WST-8). To be noted: Homo sapiens, 72 h; FTC-236 (DTC), antiproliferative, 3 days; read-out: IC50. The format is cell-based, human.
Experiment [11] concerns FTC-238 cells. The experiment can be described thus: Antiproliferation assay (WST-8). The format is cell-based, human. Particulars: Homo sapiens, 72 h; FTC-238 (DTC), antiproliferative, 3 days.
Experiment [12] has as its system 8305C cells. The experiment can be described thus: Antiproliferation assay (WST-8). The format is cell-based. To be noted: Homo sapiens, 72 h; 8305C (ATC), antiproliferative, 3 days.
The test system of experiment [13] is TCO-1 cells. As to the kind of experiment: Antiproliferation assay (WST-8). The format is cell-based. Particulars: Homo sapiens, 72 h; TCO-1 (ATC), antiproliferative, 3 days.
Experiment [14] relates to VEGFR, FGFR, KIT, PDGFR. As to the kind of experiment: Cell free kinase inhibition assay, summary for RTKs. To be noted: PDGFR (Supplementary Table S1). The format is biochemical. How it is done:
[…]. Briefly, each test compound was mixed with enzyme, substrate, ATP, and Mg under appropriate buffer conditions for the ELISA or MSA. […] IC50 values (the half maximal inhibitory concentration) were calculated from concentrations versus % inhibition curves.

Experiment [15] concerns 5 ATC xenograft models (8305C, 8505C, TCO-1, KHM-5M, HTC/C3). The experiment can be described thus: Human thyroid cancer xenograft models, tumor growth. To be noted: all 5 ATC xenograft models, 10 and 100 mg/kg oral once daily 14 days. The format is in vivo, nude mice. Here is the method: (§1) Nude mice (CAnN.Cg-Foxn1nu/CrlCrlj, female, 5-6 weeks old) were obtained from Charles River Laboratories Japan (Kanagawa, Japan). Mice were maintained under specific pathogen-free conditions and housed in barrier facilities on a 12 h light/dark cycle, with food and water ad libitum. All procedures using laboratory animals were done in accordance with all applicable institutional and government regulatory guidelines and policies and were performed in an animal facility accredited by the Center for Accreditation of Laboratory Animal Care of the Japan Health Sciences Foundation. Tumor cells were cultured in appropriate culture mediums. […] Then, 0.1-0.2 mL of the cell suspension was inoculated subcutaneously into the right flank region of each mouse. […] The tumor size was measured in two dimensions by using a caliper, and the volume was calculated by using the formula: tumor volume (mm^3) = 1/2 length (mm) × [width (mm)]^2. The change in tumor volume in the treated group relative to that in the control group was calculated according to the following formula: ΔT/C = (ΔT/ΔC) × 100%, where ΔT and ΔC are the change in tumor volume (i.e., growth) for the treated and vehicle control group, respectively. The percentage of tumor growth inhibition (%TGI) was calculated from the formula: [(1 − ΔT/ΔC) × 100].

Experiment [16] relates to 5 DTC xenograft models (K1, RO82-W-1, FTC-133, FTC-236, FTC-238). The description is as above. The format is in vivo, nude mice. To be noted: all 5 DTC xenograft models, 30 and 100 mg/kg oral once daily 14 days. Here is the method:
as §1

In experiment [17] the test system is RET. The experiment can be described thus: Western blot of RET phosphorylation in TT xenografts. Particulars: 2 h after oral administration.

T4 sequence (P06213 28-1382): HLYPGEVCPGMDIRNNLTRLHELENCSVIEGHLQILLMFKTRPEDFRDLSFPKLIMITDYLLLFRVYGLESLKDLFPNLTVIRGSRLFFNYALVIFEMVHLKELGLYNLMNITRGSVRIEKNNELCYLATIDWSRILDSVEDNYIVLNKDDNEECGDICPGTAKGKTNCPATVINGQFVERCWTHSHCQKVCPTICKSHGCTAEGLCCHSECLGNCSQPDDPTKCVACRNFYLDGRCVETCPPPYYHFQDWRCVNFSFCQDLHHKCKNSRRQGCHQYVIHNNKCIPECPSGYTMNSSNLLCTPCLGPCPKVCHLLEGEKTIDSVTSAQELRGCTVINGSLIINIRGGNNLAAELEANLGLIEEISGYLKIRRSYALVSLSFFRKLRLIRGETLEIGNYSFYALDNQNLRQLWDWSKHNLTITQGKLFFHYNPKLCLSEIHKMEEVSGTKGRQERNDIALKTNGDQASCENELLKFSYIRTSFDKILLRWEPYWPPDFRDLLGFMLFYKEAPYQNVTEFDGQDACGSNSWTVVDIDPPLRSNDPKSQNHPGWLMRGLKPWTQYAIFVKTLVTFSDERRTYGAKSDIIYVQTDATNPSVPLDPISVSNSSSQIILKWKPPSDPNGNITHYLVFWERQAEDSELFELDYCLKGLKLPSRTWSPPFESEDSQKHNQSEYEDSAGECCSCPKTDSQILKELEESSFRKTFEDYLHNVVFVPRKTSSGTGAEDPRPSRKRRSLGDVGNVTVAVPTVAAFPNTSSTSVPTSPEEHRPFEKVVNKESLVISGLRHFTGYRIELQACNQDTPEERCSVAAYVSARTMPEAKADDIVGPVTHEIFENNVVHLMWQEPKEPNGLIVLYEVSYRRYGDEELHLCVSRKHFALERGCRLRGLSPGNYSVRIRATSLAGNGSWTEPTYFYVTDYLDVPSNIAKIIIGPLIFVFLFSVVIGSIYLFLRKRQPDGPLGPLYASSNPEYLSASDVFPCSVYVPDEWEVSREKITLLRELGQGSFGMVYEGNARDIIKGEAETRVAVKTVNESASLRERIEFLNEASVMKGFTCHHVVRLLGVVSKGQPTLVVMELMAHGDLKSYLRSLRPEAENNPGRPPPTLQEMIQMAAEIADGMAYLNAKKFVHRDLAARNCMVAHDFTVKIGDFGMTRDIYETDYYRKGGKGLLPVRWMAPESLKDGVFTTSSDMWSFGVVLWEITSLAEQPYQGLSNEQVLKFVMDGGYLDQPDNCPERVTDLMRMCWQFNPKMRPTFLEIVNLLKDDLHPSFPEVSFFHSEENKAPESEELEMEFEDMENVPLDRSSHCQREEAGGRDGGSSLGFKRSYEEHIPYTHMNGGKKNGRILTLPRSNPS
T7 sequence (P30291 whole entry): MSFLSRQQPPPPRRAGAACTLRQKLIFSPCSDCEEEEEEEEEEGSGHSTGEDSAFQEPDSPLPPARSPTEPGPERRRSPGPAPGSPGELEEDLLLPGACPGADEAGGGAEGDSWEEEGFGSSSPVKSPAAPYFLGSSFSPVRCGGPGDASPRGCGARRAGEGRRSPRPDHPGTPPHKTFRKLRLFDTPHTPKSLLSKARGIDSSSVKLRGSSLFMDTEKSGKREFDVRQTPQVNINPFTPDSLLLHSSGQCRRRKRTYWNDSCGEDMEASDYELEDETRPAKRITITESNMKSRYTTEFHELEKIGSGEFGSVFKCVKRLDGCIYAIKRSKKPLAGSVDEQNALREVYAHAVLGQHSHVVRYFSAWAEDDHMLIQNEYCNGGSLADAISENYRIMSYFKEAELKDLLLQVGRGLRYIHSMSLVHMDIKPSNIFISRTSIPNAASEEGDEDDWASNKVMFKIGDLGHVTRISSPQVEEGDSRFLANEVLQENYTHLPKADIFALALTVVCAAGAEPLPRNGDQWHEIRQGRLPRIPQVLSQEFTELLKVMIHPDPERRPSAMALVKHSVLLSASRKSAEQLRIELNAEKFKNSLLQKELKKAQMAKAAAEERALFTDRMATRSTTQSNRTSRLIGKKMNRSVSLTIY
T5 sequence (P51817 whole entry): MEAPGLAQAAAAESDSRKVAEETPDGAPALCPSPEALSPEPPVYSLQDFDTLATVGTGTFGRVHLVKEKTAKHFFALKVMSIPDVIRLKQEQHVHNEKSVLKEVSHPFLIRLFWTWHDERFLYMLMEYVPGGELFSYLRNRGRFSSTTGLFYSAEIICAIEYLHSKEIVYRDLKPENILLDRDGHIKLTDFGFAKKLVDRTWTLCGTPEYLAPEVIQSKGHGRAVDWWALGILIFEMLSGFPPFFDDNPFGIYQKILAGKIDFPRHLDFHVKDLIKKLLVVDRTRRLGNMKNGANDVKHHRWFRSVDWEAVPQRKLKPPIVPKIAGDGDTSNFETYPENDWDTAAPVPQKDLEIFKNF
T2 sequence (P16234 24-1089 T674I): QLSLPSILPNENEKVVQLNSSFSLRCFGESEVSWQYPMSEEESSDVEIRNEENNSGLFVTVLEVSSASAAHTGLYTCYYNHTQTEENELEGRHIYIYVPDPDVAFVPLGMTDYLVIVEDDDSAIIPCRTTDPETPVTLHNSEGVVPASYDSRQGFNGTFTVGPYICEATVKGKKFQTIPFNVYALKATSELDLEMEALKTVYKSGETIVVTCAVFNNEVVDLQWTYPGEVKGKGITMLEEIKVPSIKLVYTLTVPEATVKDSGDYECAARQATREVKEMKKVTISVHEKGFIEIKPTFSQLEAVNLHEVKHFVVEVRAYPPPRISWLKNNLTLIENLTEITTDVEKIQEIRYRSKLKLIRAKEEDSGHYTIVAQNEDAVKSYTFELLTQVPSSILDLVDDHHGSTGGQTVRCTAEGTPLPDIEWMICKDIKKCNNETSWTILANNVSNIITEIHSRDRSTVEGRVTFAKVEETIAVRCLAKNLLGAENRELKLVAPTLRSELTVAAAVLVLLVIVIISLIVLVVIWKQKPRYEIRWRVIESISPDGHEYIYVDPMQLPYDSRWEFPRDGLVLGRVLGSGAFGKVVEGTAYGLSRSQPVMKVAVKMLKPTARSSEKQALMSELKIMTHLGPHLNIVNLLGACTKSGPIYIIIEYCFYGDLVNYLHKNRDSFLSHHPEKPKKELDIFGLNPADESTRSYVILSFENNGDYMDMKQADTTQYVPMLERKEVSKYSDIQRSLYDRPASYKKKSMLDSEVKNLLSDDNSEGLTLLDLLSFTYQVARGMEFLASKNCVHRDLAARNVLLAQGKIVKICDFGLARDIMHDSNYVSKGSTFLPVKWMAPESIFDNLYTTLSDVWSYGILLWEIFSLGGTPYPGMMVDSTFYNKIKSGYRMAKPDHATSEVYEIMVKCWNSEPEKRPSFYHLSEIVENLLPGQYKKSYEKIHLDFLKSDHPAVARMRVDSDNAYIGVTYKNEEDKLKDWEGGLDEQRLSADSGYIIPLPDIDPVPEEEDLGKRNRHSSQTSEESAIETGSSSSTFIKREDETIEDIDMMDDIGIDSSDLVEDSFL
T1 sequence (P10721 26-976 T670I): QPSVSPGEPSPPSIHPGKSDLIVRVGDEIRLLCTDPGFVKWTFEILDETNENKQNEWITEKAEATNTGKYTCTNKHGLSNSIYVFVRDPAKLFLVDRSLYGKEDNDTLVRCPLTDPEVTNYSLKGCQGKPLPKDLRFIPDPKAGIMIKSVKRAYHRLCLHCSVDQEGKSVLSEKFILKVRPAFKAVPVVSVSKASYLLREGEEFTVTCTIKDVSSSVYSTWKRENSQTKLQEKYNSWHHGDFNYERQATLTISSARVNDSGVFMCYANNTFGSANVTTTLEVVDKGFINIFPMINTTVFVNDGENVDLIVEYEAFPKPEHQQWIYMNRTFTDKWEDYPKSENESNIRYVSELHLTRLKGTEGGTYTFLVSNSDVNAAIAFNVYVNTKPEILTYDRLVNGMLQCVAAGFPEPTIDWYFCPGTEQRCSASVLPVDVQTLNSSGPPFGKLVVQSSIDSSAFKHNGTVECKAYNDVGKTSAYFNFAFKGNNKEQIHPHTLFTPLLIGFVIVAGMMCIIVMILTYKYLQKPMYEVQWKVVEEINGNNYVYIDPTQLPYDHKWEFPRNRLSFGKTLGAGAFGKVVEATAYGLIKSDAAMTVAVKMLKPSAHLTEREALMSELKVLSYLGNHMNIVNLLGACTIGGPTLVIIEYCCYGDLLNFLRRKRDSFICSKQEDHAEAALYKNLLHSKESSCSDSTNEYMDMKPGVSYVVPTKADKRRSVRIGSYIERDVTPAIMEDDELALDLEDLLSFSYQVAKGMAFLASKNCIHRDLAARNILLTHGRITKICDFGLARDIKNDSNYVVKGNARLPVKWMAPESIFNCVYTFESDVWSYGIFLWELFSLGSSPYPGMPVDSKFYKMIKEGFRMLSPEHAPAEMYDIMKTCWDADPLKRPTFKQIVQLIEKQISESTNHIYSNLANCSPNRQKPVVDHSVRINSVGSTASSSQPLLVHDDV
T6 sequence (Q96BR1 whole entry): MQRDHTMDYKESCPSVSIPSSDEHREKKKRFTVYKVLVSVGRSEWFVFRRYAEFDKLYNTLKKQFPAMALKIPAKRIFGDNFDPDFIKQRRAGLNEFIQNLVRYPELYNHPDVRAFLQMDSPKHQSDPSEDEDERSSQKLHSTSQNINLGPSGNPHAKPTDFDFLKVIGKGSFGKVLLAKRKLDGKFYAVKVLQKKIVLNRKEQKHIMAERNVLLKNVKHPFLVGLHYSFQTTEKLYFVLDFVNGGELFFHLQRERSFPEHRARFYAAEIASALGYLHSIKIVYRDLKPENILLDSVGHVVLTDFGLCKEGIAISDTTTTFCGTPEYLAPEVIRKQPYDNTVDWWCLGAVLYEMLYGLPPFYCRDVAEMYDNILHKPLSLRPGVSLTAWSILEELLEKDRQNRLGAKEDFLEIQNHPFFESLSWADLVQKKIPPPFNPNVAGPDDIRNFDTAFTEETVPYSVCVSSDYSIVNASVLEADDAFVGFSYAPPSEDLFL

Turning to `COc1cc2nccc(Oc3ccc(NC(=O)NC4CC4)c(Cl)c3)c2cc1C(N)=O` [Lenvatinib, Lenvatinib mesilate], the IC50 was 0.41 µM in experiment [1]; 0.63 µM in [2]; 8.7 µM in experiment [3]; more than 10 µM in [4]; more than 10 µM in [5]; more than 10 µM in experiment [6]. Moreover, the IC50 in [7] is more than 10 µM; in experiment [8], 15 µM; in [9], 22 µM; in [10], 17 µM; in [11] it was 18 µM; in experiment [12], 26 µM. For the same compound, the results for the IC50 in experiment [13] and in experiment [14] were 28 µM and less than 0.1 µM, respectively. Further, the antitumor activity result in experiment [15] and in [16] was “significant antitumor activity” in each case. The RET phosphorylation entry in [17] is listed as “inhibition of RET phosphorylation”.
